Read-outs that look alike come from different tables or passages of the source.
Experiments:
[1] = molecular target: T1, human heart chymase (Homo sapiens, UniProt P23946); settings: read-out: Chymase inhibitive activity (IC50), Ang I substrate, 37° C., 30 min, pH 7.5
T1 sequence (P23946 22-247): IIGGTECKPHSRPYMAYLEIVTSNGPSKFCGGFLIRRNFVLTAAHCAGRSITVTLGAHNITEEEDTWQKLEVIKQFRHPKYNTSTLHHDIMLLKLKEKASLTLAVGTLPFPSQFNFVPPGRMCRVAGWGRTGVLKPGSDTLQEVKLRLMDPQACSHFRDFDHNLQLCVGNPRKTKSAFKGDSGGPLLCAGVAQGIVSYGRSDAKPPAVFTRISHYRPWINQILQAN
Procedure: (§1) That is, to 10 μl of a 20 mM trisphosphate buffer (pH 7.5) containing 2MKCl were added 10 μl of purified chymase and 5 μl of a dimethylsulfoxide (hereinafter referred to as DMSO) solution of the test sample. The mixture was preincubated at 37° C. for 10 minutes, then 25 μl of a 1 mM Ang I solution was added and the mixture preincubated at 37° C. for 30 minutes. Next, 50 μl of 30% acetic acid was added to stop the enzymatic reaction. At the same time, a blind test was performed by adding, instead of the test sample solution, 5 μl of DMSO and performing the same reaction.
(§2) The reacted solution was subjected to high performance liquid chromatography using Develosil ODS-5 (made by Nomura Kagaku, .phi.4.6 mm×150 mm) and developed at a flow rate of 2.0 ml/min in 0.05% TFA by a straight concentration gradient raising the acetonitrile from 0% to 60% over 10 minutes. This was monitored by the absorbance at 210 nm and the peaks identified by comparison with standard samples of Ang I and Ang II. The peak areas were measured by an integrating meter to quantitatively analyze the Ang I and Ang II and calculate the chymase activity.

[2] = in vivo; settings: mouse, po
[3] = molecular target: T2, human neutrophil derived cathepsin G (Homo sapiens, UniProt P08311); assay: Measurement of cathepsin G inhibitive activity (conversion of Ang I to Ang II, HPLC); format: biochemical; settings: Ang I substrate, 37° C., 30 min, pH 7.5
T2 sequence (P08311 21-244 limits assumed): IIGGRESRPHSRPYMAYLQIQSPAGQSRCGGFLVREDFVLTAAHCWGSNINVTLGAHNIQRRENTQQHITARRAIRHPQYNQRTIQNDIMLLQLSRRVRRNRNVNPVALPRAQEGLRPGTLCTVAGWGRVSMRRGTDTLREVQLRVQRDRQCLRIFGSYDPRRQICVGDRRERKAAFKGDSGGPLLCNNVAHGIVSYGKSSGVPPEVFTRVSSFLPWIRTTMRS

[4] = molecular target: T3, bovine pancreatic α-chymotrypsin (Bos taurus, UniProt P00766); assay: Measurement of chymotrypsin inhibitive activity (Ang I, HPLC); format: biochemical; settings: for IC50: bovine pancreatic α-chymotrypsin, Ang I substrate, 37° C., 15 min, pH 7.5; for inhibition at 100 µM: percent inhibition at 100 μM
T3 construct: purchased Sigma Co. Type II; host or cells: bovine pancreas

[5] = molecular target: T1, human heart chymase; assay: biochemical; settings: Chymase inhibitive activity (IC50), Ang I substrate, 37° C., 30 min, pH 7.5
Procedure: as §1, §2

[6] = system: chymase; settings: canine, simian, and human arterial tissue; cited from earlier work
[7] = system: vascular restenosis after the operation of PTCA; settings: random multifacility clinical study, Europe, placebo control; cited from earlier work

IC50 [3] [µM] | IC50 [4] [µM] | IC50 [5] [µM] | Compound | also measured
 |  |  | 3(4-chlorobenzenesulfonyl)-1-phenethyl-2,4(1H,3H)-quinazolinedione [Example 129] | IC50 [1]: 3.2 µM
 |  |  | Cc1cccc2[nH]c(=O)n(S(=O)(=O)c3ccc(Cl)cc3)c(=O)c12 [Example 2, 3-(4-chlorobenzenesulfonyl)-5-methyl-2,4(1H,3H)-quinazolinedione] | LD50 at 24 h [2]: ≥ 1000 mg/kg; selectivity ratio at 24 h [2]: ≥ 50
37 | 8.5 | 30 | Cc1cc2[nH]c(=O)n(S(=O)(=O)c3ccc(Cl)cc3)c(=O)c2cc1C [Example 21, 3-(4-chlorobenzenesulfonyl)-6,7-dimethyl-2,4(1H,3H)-quinazolinedione] | 
3.8 | 12 | 1.6 | O=c1[nH]c2ccccc2c(=O)n1S(=O)(=O)c1ccc(Cl)cc1 [Example 23, 3-(4-chlorobenzenesulfonyl)-2,4(1H,3H)-quinazolinedione] | 
16 |  | 7 | Cn1c(=O)n(S(=O)(=O)c2ccc(Cl)cc2)c(=O)c2ccc(Cl)cc21 [Example 27, 7-chloro-3-(4-chlorobenzenesulfonyl)-1-methyl-2,4(1H,3H)-quinazolinedione] | inhibition at 100 µM [4]: 27%
14 |  | 3.3 | O=C(O)Cn1c(=O)n(S(=O)(=O)c2ccc(Cl)cc2)c(=O)c2ccc(Cl)cc21 [Example 29, 1-carboxymethyl-7-chloro-3-(4-chlorobenzenesulfonyl)-2,4(1H,3H)-quinazolinedione] | inhibition at 100 µM [4]: 46.5%
1.1 | 5.7 | 1.7 | O=c1[nH]c2cc(F)ccc2c(=O)n1S(=O)(=O)c1ccc(Cl)cc1 [Example 31, 3-(4-chlorobenzenesulfonyl)-7-fluoro-2,4(1H,3H)-quinazolinedione] | 
3.6 | 4.6 | 1.9 | O=c1[nH]c2ccc(F)cc2c(=O)n1S(=O)(=O)c1ccc(Cl)cc1 [Example 33, 3-(4-chlorobenzenesulfonyl)-6-fluoro-2,4(1H,3H)-quinazolinedione] | 
1.2 | 6.1 | 1.3 | Cc1ccc(S(=O)(=O)n2c(=O)[nH]c3cc(Cl)ccc3c2=O)cc1 [Example 37, 7-chloro-3-(4-toluenesulfonyl)-2,4(1H,3H)-quinazolinedione] | 
 |  |  | Nc1ncc(NC(=O)Cn2c(=O)n(S(=O)(=O)c3ccc(Cl)cc3)c(=O)c3ccc(Cl)cc32)cn1 [Example 87, [7-chloro-3-(4-chlorobenzenesulfonyl)-2,4(1H,3H)-quinazolinedion-1-yl]-N-(4-(2-aminopyrimidinyl))acetamide] | IC50 [1]: 0.13 µM
 |  |  | O=C(Cn1c(=O)n(S(=O)(=O)c2ccc(Cl)cc2)c(=O)c2ccc(Cl)cc21)Nc1cc[nH]c(=O)n1 [Example 88, [7-chloro-3-(4-chlorobenzenesulfonyl)-2,4(1H,3H)-quinazolinedion-1-yl]-N-cytosinacetamide] | IC50 [1]: 0.2 µM
 |  |  | CC(C)C[C@H](NC(=O)[C@@H](NC(=O)N[C@@H](Cc1ccccc1)C(=O)O)[C@@H]1CCN=C(N)N1)C(=O)N[C@H](C=O)Cc1ccccc1 [chymostatin] | inhibition of the enzymatic activity of chymase, in words [6]: inhibited
 |  |  | CCOC(=O)[C@H](CCc1ccccc1)N[C@H]1CCCN2CCC[C@@H](C(=O)O)N2C1=O [cilazapril] | prophylactic effect on vascular restenosis after PTCA versus placebo [7]: no statistically significant difference

Compound | IC50 [3] [µM] | IC50 [4] [µM] | IC50 [5] [µM] | also measured
O=c1[nH]c2cc(Cl)ccc2c(=O)n1S(=O)(=O)c1ccc(Cl)cc1 [Example 1, 7-chloro-3-(-4-chlorobenzenesulfonyl)-2,4(1H,3H)-quinazolinedione] | 0.52 | 1.5 |  | LD50 at 24 h [2]: ≥ 1000 mg/kg
CC(C)(C)OC(=O)Cn1c(=O)n(S(=O)(=O)c2ccc(Cl)cc2)c(=O)c2ccc(Cl)cc21 [Example 25, 1-t-butoxycarbonylmethyl-7-chloro-3-(4-chlorobenzenesulfonyl)-2,4(1H,3H)-quinazolinedione] | 37 |  | 6.3 | inhibition at 100 µM [4]: 34.5%
